Experimental data: US11058654B2, “Compositions and methods for the treatment of hemoglobinopathies and thalassemias” (AXCELLA HEALTH INC., priority 2018, dated 2021)
Like-named read-outs stand apart in the source and are kept apart here.

Experiments:
[1] = Plasma pharmacokinetics after oral gavage in male Sprague-Dawley rats; assay type: in vivo; set-up: AUC(0-t): concentration or dose not given beside the values; details: rat
Method: A pharmacokinetic (PK) analysis was performed on plasma concentrations of various combinations of amino acid compounds administered by oral gavage to male Sprague-Dawley rats. Four animals were dosed with RCitNacQCarLHKVS, a test article comprising ten amino acid components: arginine, citrulline, N-acetylcysteine, glutamine, carnitine, leucine, histidine, lysine, valine, and serine (Table 19). Animals were fasted for 2 hours prior to dose administration. Plasma samples were taken immediately pre-dose and 0.5, 1, 2, 3, 4, and 5 hours post-dose.
Bioanalysis of collected plasma samples for amino acid content was performed at Axcella Health using an LC-MS method (Section 2.1). Bioanalytical data were analyzed using noncompartmental analysis with Phoenix® WinNonLin® (v8.1).
An LC/MS method utilizing HILIC chromatography and high-resolution mass spectrometry was used to quantify amino acids in rat plasma. The samples were prepared by protein precipitation and spiked with stable-labeled amino acid internal standard for each analyte. […] QCs, spiked into rat plasma, were utilized to assess the accuracy of the method.
PK parameters of test article components were determined from individual rat plasma concentration-time data by employing a noncompartmental approach using Phoenix WinNonlin® (Version 8.1) software. Nominal times were used to calculate the toxicokinetic parameters. […] This program analyzed data using the standard methods described by Gibaldi and Perrier (see M. Gibaldi and D. Perrier, Pharmacokinetics, 2nd edition, New York: Marcel-Dekker, Inc.; 1982.).

[2] = test system: RBCs of healthy whole blood; experiment: RBC deformability (LORRCA elongation index), ex vivo TBHP oxidation of healthy whole blood; assay type: cell-based, human; details: healthy donor 2, single amino acid treatments, in words
Excerpt: Whole blood from healthy African American and/or Hispanic donors was obtained from Research Blood Components, LLC based on the following donor selection criteria: Adult age (between 18 and 50 years), normal BMI (<30), and absence of other confounding clinical conditions. Whole blood from SCD donors were obtained from BioIVT based on the following donor selection criteria: Patients with genotypes HbSS, HbSC, HbS/β^0 and at least 1-2 months gap since last blood transfusion. Whole blood was shipped on ice on the same day as blood draw. Upon receipt, the blood sample was aliquoted and stored in the refrigerator until used for studies.
RBC deformability measurements were conducted with the Laser Optical Rotational Red Cell Analyzer (LORRCA) from RR Mechatronics in a temperature-controlled environment (37° C.). Briefly, an even layer of RBCs suspended in polyvinylpyrrolidone (PVP) is subjected to shear stress gradient (0.3 to 30 Pa) through two concentric cylinders and the resulting changes in RBC shape or deformability are measured by a laser beam diffraction pattern. The captured images of RBC shape in response to increasing shear stress are then analyzed by the LORRCA program to calculate Elongation Index (EI).
Healthy RBCs have higher deformability≥0.5 EI and SCD RBCs have lower deformability or EI values as studied by LORRCA ektacytometry in the field. […] The induced hemolysis model in this disclosure involves use of tert-butyl hydroperoxide (TBHP) to lower EI of RBCs.
The ex vivo hemolysis study disclosed here involves overnight treatment of whole blood with vehicle as a control and specific amino acids followed by rapid oxidation (5 min) with TBHP. Method for oxidation of whole blood with tert-butyl hydroperoxide has been used in prior literature (Diederich L, et al, Front Physiol. 2018 May 11; 9:332). RBC deformability or shape changes are then measured with LORRCA ektacytometry.
Whole blood aliquots stored in the fridge were brought up to room temperature while gently shaking on a rocker at low speed for an hour to ensure gradual and uniform suspension of red blood cells prior to deformability measurements. Vehicle control used in the study was 1× Dulbecco's […]) and amino acids disclosed herein were added (at either final […] or 2.5 mM concentration as indicated) to corresponding vehicle and amino acid treatment conditions. The samples were then incubated overnight at 37° C. Next day, 25 μL of whole blood was taken from each treatment condition and added to 5 mL Elon ISO viscous solution from RR Mechatronics. The sample was inverted 15-20 times to ensure proper mixing of the treated RBCs with the Elon ISO solution followed by loading the sample on LORRCA and capturing RBC deformability or shape measurements over the applied shear gradient. The remaining whole blood treatments were returned to incubator (37° C.) until deformability measurements were completed for all treatments. To the remaining whole blood treatment samples, TBHP solution (5.0-6.0 M in Decane, Sigma) was added at 2.5 mM final concentration from a 100 mM freshly prepared stock and incubated for further 5 min at 37° C. 25 μL of this TBHP-treated sample was immediately removed at the end of the 5 min incubation and added to the Elon ISO solution for RBC deformability measurement after oxidation. Included in the Tables 13-15 are EI measurements at ½ EImax shear stress 1.69 Pa and EImax shear stress 30 Pa from these studies and FIG. 1 captures EI measurements for all shear stress points for the indicated treatment conditions.

VCAM-1 = VCAM-1 cell integrated intensity in HLMVEC treated with TNFa; assay type: cell-based, human; details: 0.5 ng/mL TNFα; amino acids at 20×; 24 hours; in words
Excerpt: A VEC model was employed to assess the ability of amino acids to influence aspects of vascular dysfunction in SCD. TNFa treatment of healthy donor HLMVEC mimics the SCD disease state and induces expression of adhesion markers ICAM-1 and VCAM-1, and secretion of proinflammatory cytokine IL-6. It is established that levels of ICAM-1, VCAM-1, and IL-6 can contribute to SCD pathology and correlate with the incidence and severity of complications in SCD patients. The VEC model sought to test the ability of amino acids to reduce the TNFa-induced disease phenotype by lowering expression of adhesion markers (ICAM-1 and VCAM-1) and inflammatory cytokines (IL-6) while promoting VEC health and viability.
Primary Human Lung Microvascular Endothelial Cells (HLMVEC; Lonza) were seeded at 6,000 cells per well in Endothelial Cell Growth Basal Medium-2 (Lonza) supplemented with Fetal Bovine Serum (FBS; Lonza), human EGF (Lonza), human VEGF (Lonza), R3-Insulin-like Growth Factor-1 (Lonza), ascorbic acid (Lonza), hydrocortisone (Lonza), human FGF-beta (Lonza), and gentamicin/amphotericin-b (Lonza) in a 96-well plate (Thermo Fisher). The cells were incubated for 45 minutes at room temperature, then incubated overnight at 37° C./5% CO2.
Following overnight incubation, cell were washed once with 150 μL of Dulbecco's phosphate buffered saline (DPBS; Gibco), and then treated with Endothelial Basal Medium MCB-131 (amino acid, glucose, sodium pyruvate, and phenol red free; US Biologicals) containing a defined custom amino acid concentration based on physiological concentrations in blood of patients with SCD (thus recapitulating observed metabolic imbalances such as the depletion of certain essential amino acids including arginine and aspartate and enrichment of certain non-essential amino acids including glutamate and asparagine), dialyzed FBS (Hyclone), human EGF (Lonza), human VEGF (Lonza), R3-Insulin-like Growth Factor-1 (Lonza), ascorbic acid (Lonza), hydrocortisone (Lonza), human FGF-beta (Lonza), and gentamicin/amphotericin-b (Lonza), glucose, 10 mM HEPES, sodium pyruvate, and sodium bicarbonate supplemented with one of the following: • a. PBS (vehicle control), • b. 0.5 ng/mL Tumor Necrosis Factor alpha (TNFα) and PBS, or; • c. 0.5 ng/mL TNFα and amino acid treatments at 20× mean physiological concentrations in plasma based on values published in the Human Metabolome Database (HMDB) in PBS.
After 24 hours of treatment, cells were washed once with 150 μL of DPBS (Gibco), then fixed with 4% paraformaldehyde. […]
Antibody binding was detected by fluorescence microscopy using a high content imager (Molecular Devices). Images were analyzed using MetaXpress 6 software to determine the integrated intensity per cell for each wavelength corresponding to ICAM-1 or VCAM-1.

IL-6 = experiment: LPS-induced IL-6 secretion in primary human PBMC-derived macrophages (ELISA); assay type: cell-based; details: Donor 2; in words
Method: (§1) Unpurified buffy coats (Research Blood Components) were carefully poured into 50 mL centrifuge tubes and diluted with room temperature Dulbecco's Phosphate Buffered Saline (dPBS) with Calcium and Magnesium (Gibco). Diluted buffy coats were further divided into four total 50 mL centrifuge tubes at 20 mL per tube. Lymphocyte Separation Medium (Corning) was carefully pipetted to the bottom of each centrifuge tube. Mixtures were centrifuged at 850× g for 32 minutes at 20° C. with 0 deceleration and acceleration.
(§2) The PBMC layer was separated from other components after centrifugation and added to new 50 mL centrifuge tube containing 25 mL dPBS. Total volume was brought up to 50 mL with dPBS and centrifuged at 600× g for 10 minutes at 20° C. with acceleration of 9, deceleration of 5. Supernatant was carefully removed from cell pellets. The cell pellets were resuspended using 10 mL dPBS. Total volume was then brought up to 50 mL using dPBS and centrifuged at 450× g for 5 min at 20° C. with acceleration of 9, deceleration of 9. The supernatant removal and cell pellet resuspension was repeated again.
(§3) The supernatant was then carefully removed from cell pellets. Cell pellets were resuspended in 10 mL dPBS without calcium or magnesium and filtered through a 70 uM cell strainer. The total PBMC number was determined using a Cellometer K2 automated cell counter. A total of 5E6 cells were saved for flow cytometric analysis. Remaining cells were centrifuged at 490× g for 5 minutes at 20° C. with acceleration of 9, deceleration of 9.
(§4) CD14+ cells were selected using EasySep™ Human CD14 Positive Selection Kit II ([…] Technologies). Cells were resuspended in cold EasySep™ Buffer ([…] Technologies) at 1×10^8 cells/mL. A total of 100 uL/mL EasySep™ Human CD14 Positive Selection Cocktail II was added to the cell suspension, mixed, and incubated at room temperature for 10 minutes. A total of 100 uL/mL RapidSpheres were added to the mixture and incubated at room temperature for 3 minutes after mixing, then RoboSep buffer was added to bring up the total volume to 10 mL. The mixture in a 15 mL tube was placed in magnet and incubated at room temperature for 3 minutes. Supernatant was discarded and 10 mL fresh EasySep™ buffer was added to 15 mL tube. The addition of RoboSep buffer, mixing, and discarding of supernatant was repeated two more times.
(§5) Negative and positive fractions were centrifuged at 490× g for 5 minutes at 20° C. with acceleration of 9, deceleration of 9, and resuspended in DMEM (Gibco) and 10% Heat Inactivated Fetal Bovine Serum (Atlanta Bio) and Penicillin/Streptomycin. Cells were counted and centrifuged again at […] for 5 minutes at 20° C. with acceleration of 9, deceleration of 9. After centrifugation, cell were resuspended in DMEM (Gibco) and 10% Heat Inactivated Fetal Bovine Serum (Atlanta Bio) and Penicillin/Streptomycin containing 500 U/mL […] and plated at 1-2×10^6 cells/mL on 10 cm tissue culture plates. Cells were kept in 37° C., 5% CO2 in between feedings/harvest.
(§6) Cells were fed every 3-4 days by removing media and unattached cells, centrifuging at 490× g for 5 minutes at 20 C with acceleration of 9, deceleration of 9, and resuspending in fresh DMEM (Gibco) and 10% Heat Inactivated Fetal Bovine Serum (Atlanta Bio) and Penicillin/Streptomycin containing GM-CSF. Resuspended cells were seeded back onto 10 cm tissue culture plates and incubated at 37° C., 5% CO2. Differentiated macrophages were used for subsequent experiments.
(§7) Primary human PMBC derived macrophages were seeded on day 0 at 3.0E4 cells per well in 96-well microplates (ThermoFisher) in Dulbecco's Modified Eagle Medium (DMEM) (Gibco) supplemented with penicillin-streptomycin (Hyclone) and 10% heat inactivated fetal bovine serum (HI-FBS) (Atlanta Bio) and incubated overnight at 37° C., 5% CO2. On day 1, cells were washed once with 150 uL per well DPBS (Gibco) and treated with 75 uL of: • a. […]

TNFa = experiment: LPS-induced TNFa secretion in primary human PBMC-derived macrophages (ELISA); assay type: cell-based; details: Donor 2; in words
Method: as §1, §2, §3, §4, §5, §6, §7

[3] = plasma, Mean, oral gavage of RCitNacQCarLHKVS, male Sprague-Dawley rats, read-out: AUC0-5 h
[4] = plasma, Mean, oral gavage of RCitNacQCarLHKVS, male Sprague-Dawley rats, read-out: Cmax
[5] = plasma, Mean, oral gavage of RCitNacQCarLHKVS, male Sprague-Dawley rats, read-out: Tmax
[6] = male, Sprague-Dawley, in vivo, po

AUC(0-t) [1, 3] | Cmax [1, 4] | Tmax [1, 5] | SMILES | further results
237 µM·h | 83.8 µM | 5 h | C[N+](C)(C)CC(O)CC(=O)[O-] (stereo not shown) [Carnitine] | –
– | – | – | NC(=O)NCCC[C@H](N)C(=O)O [Cit, citrulline] | EI over vehicle control, ½ EImax and EImax [2]: higher than the vehicle; VCAM-1 expression in HLMVEC (VCAM-1): moderate effect
1030 µM·h | 285 µM | 2.25 h | N[C@@H](CO)C(=O)O [Serine] | –
1350 µM·h | 337 µM | 1 h | NCCCC[C@H](N)C(=O)O [Lysine] | –
586 µM·h | 170 µM | 0.5 h | CC(C)C[C@H](N)C(=O)O [Leucine] | effect on LPS-induced IL-6 secretion (IL-6): increased; effect on LPS-induced TNFa secretion (TNFa): increased
– | – | – | CC[C@H](C)[C@H](N)C(=O)O [Isoleucine] | effect on LPS-induced TNFa secretion (TNFa): increased
– | – | – | N[C@@H](Cc1c[nH]cn1)C(=O)O [Histidine] | AUC(0-t) [1, 6]: 157 µM·h; Cmax [1, 6]: 41.9 µM; Tmax [1, 6]: 1.25 h
– | – | – | C[N+](C)(C)CC(O)CC(=O)[O-] (stereo not shown) [Car, carnitine] | EI over vehicle control, ½ EImax and EImax [2]: higher than the vehicle; VCAM-1 expression in HLMVEC (VCAM-1): moderate effect
463 µM·h | 126 µM | 1 h | CC(C)[C@H](N)C(=O)O [Valine] | –

SMILES | AUC(0-t) [1, 3] | Cmax [1, 4] | Tmax [1, 5] | further results
NC(=O)NCCC[C@H](N)C(=O)O [Citrulline] | 2090 µM·h | 583 µM | 2.5 h | –
